Measured values published in paper PMC3022030 (PLoS ONE, 2011).
Read-outs that look alike come from different tables or passages of the source.

Key:
Experiment in all cases: biochemical
[1] = biological target: T1, QacR (Staphylococcus aureus, UniProt P0A0N3, E120A)
[2] = biological target: T2, QacR (Staphylococcus aureus, UniProt P0A0N3, E90A)
[3] = biological target: T2, QacR; remark: listed apart in the source
[4] = biological target: T1, QacR; remark: listed apart in the source

Row | Compound | Kd [1] | Kd [2] | Kd [3] | Kd [4]
1 | Cc1cc(N)c2ccccc2[n+]1CCCCCCCCCC[n+]1c(C)cc(N)c2ccccc21 [dequalinium] | 2.4 ± 0.6 µM | 1.8 ± 0.07 µM |  | 
2 | CC[n+]1c(-c2ccccc2)c2cc(N)ccc2c2ccc(N)cc21 [ethidium] |  |  | 1.03 ± 0.09 µM | 1.25 ± 0.15 µM
3 | CN(C)c1ccc(C(=C2C=CC(=[N+](C)C)C=C2)c2ccccc2)cc1 [malachite green] |  |  | 1.49 ± 0.1 µM | 0.98 ± 0.32 µM
4 | CCN=c1cc2oc3cc(NCC)c(C)cc3c(-c3ccccc3C(=O)OCC)c-2cc1C [rhodamine 6G] |  |  | 0.21 ± 0.02 µM | 0.17 ± 0.01 µM
